The values below are quoted from earlier work in patent US20190358249A1, “Injectable Combination Products Of Fosaprepitant And 5-HT3 Blocker” (Navinta III Inc, priority 2018, published 2019).

Structures are written as SMILES. “Also recorded” adds a separate entry of the source. Where a name gives a salt, the structure may show the parent alone.

Data set [1] relates to subjects receiving highly emetogenic cisplatin-based chemotherapy. The settings on record: added to ondansetron and dexamethasone.
For data set [2] the following is noted: precipitates when the pH is above the range.
The conditions of data set [3]: 1% w/v in water.

Take `C[C@@H](O[C@H]1OCCN(Cc2n[nH]c(=O)[nH]2)[C@H]1c1ccc(F)cc1)c1cc(C(F)(F)F)cc(C(F)(F)F)c1` [Aprepitant]: the “protection against CINV” value in data set [1] is “consistently superior protection”. In addition, the “solubility in water (in words)” value (water) is given as “very low solubility; also recorded: minimal solubility; also recorded: practically insoluble”.
On to `C[C@@H](O[C@H]1OCCN(Cc2nc(O)n(P(=O)(O)O)n2)[C@H]1c1ccc(F)cc1)c1cc(C(F)(F)F)cc(C(F)(F)F)c1` [Fosaprepitant], for which the “solubility in water (in words)” value (water) was “good solubility”.
As for `Cc1nccn1CC1CCc2c(c3ccccc3n2C)C1=O` (stereo not drawn) [Ondansetron], in data set [2], the “pH above which free base precipitates” value is 5.7-7. Under “saline”, the solubility in saline was 0.8%. The solubility in water (water) is reported as 3.2%. Further, the “pH of a 1% w/v solution in water” value in data set [3] was “about 4.6”.
On to `O=C1c2cccc3c2[C@H](CCC3)CN1[C@@H]1CN2CCC1CC2` [Palonosetron Hydrochloride], for which, for the setting “across the physiological pH range”, the “solubility in aqueous media” value is recorded as “very soluble”. Also, where the note is “water”, the “solubility in water (in words)” value is “freely soluble”.
